Laboratory results taken from PubChem BioAssay AID328 (DTP/NCI, 2004).
“And” between values parts separate entries of the source, which are not always exact repeats. Equal entries are not always repeated. Inconclusive results and toxic doses are left out.

Test system: BDF1 mice, P388 leukemia ip, median survival T/C
Test: NCI In Vivo Anticancer Drug Screen. Data for tumor model P388 Leukemia (intraperitoneal) in B6D2F1 (BDF1) mice
Settings: endpoint: median survival time, higher = longer survival
How it was run: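 In tumour-bearing mice, survival after compound treatment is set against the vehicle group and given as a quotient.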

[1] = dose: 12.5 mg/kg/injection, schedule: Q01DX009 (ip), vehicle: water
[2] = dose: 50.0 mg/kg/injection, schedule: Q04DX003 (ip), vehicle: water
[3] = dose: 50.0 mg/kg/injection, schedule: Q04DX003 (ip), vehicle: Klucel (hydroxypropylcellulose) (HPC)
[4] = dose: 50.0 mg/kg/injection, schedule: Q01DX009 (ip), vehicle: saline with Tween-80
[5] = dose: 100.0 mg/kg/injection, schedule: Q01DX009 (ip), vehicle: saline with Tween-80
[6] = dose: 12.5 mg/kg/injection, schedule: Q01DX009 (ip), vehicle: Klucel (hydroxypropylcellulose) (HPC)
[7] = dose: 6.25 mg/kg/injection, schedule: Q01DX009 (ip), vehicle: Klucel (hydroxypropylcellulose) (HPC)
[8] = dose: 100.0 mg/kg/injection, schedule: Q04DX003 (ip), vehicle: saline with Tween-80
[9] = dose: 200.0 mg/kg/injection, schedule: Q04DX003 (ip), vehicle: saline with Tween-80
[10] = dose: 200.0 mg/kg/injection, schedule: Q01DX009 (ip), vehicle: saline with Tween-80
[11] = dose: 100.0 mg/kg/injection, schedule: Q04DX003 (ip), vehicle: Klucel (hydroxypropylcellulose) (HPC)
[12] = dose: 200.0 mg/kg/injection, schedule: Q04DX003 (ip), vehicle: Klucel (hydroxypropylcellulose) (HPC)
[13] = dose: 400.0 mg/kg/injection, schedule: Q04DX003 (ip), vehicle: Klucel (hydroxypropylcellulose) (HPC)
[14] = dose: 25.0 mg/kg/injection, schedule: Q01DX001 (ip), vehicle: Klucel (hydroxypropylcellulose) (HPC)
[15] = dose: 100.0 mg/kg/injection, schedule: Q04DX003 (ip), vehicle: saline
[16] = dose: 200.0 mg/kg/injection, schedule: Q04DX003 (ip), vehicle: saline

Which results are given for O=C(O)CSc1cc(-c2ccc(Cl)cc2)s[s+]1?
T/C (dose: 1.56 mg/kg/injection, schedule: Q01DX009 (ip), vehicle: water): 104 % of control; T/C (dose: 2.0 mg/kg/injection, schedule: Q04DX003 (ip), vehicle: water): 100 % of control; T/C (dose: 3.12 mg/kg/injection, schedule: Q01DX009 (ip), vehicle: water): 115 % of control; T/C (dose: 4.0 mg/kg/injection, schedule: Q04DX003 (ip), vehicle: water): 112 % of control; T/C (dose: 6.25 mg/kg/injection, schedule: Q01DX009 (ip), vehicle: water): 112 % of control; T/C (dose: 6.25 mg/kg/injection, schedule: Q04DX003 (ip), vehicle: water): 117 % of control; T/C (dose: 8.0 mg/kg/injection, schedule: Q04DX003 (ip), vehicle: water): 100 % of control; T/C [1]: 107 % of control; T/C (dose: 12.5 mg/kg/injection, schedule: Q04DX003 (ip), vehicle: water): 100 % of control; T/C (dose: 16.0 mg/kg/injection, schedule: Q04DX003 (ip), vehicle: water): 90 % of control; T/C (dose: 25.0 mg/kg/injection, schedule: Q04DX003 (ip), vehicle: water): 97 % of control; T/C [2]: 97 % of control

For CCC(c1ccc2cc(OC)ccc2c1)C(C(=O)O)C(=O)O (configuration not stated), which T/C [3] is on record?
The T/C was 87 % of control.

For CC(=O)N1N=C(N)SC1c1ccc(Cl)c(Cl)c1 (configuration not stated), which T/C [4] is on record?
Its T/C is 113 % of control.

And the T/C [5]?
Its T/C is 113 % of control.

What does the source list for CCC(c1ccc2cc(OC)ccc2c1)C(C)(C)C(=O)F (configuration not stated)?
T/C [6]: 116 % of control; T/C (dose: 33.0 mg/kg/injection, schedule: Q01DX009 (ip), vehicle: Klucel (hydroxypropylcellulose) (HPC)): 104 % of control; T/C (dose: 75.0 mg/kg/injection, schedule: Q01DX009 (ip), vehicle: Klucel (hydroxypropylcellulose) (HPC)): 113 % of control

For O=c1[nH]cc(N(CCCl)CCCl)c(=O)[nH]1, which T/C (dose: 0.38 mg/kg/injection, schedule: Q01DX010 (ip), vehicle: saline) is on record?
The T/C was 218 % of control.

What about the T/C (dose: 0.75 mg/kg/injection, schedule: Q01DX010 (ip), vehicle: saline) of the same compound?
The T/C was 300 % of control.

What about the T/C (dose: 1.5 mg/kg/injection, schedule: Q01DX010 (ip), vehicle: saline) of the same compound?
The T/C was 204 % of control.

What does the source list for COS(C)(=O)=O?
T/C (dose: 12.5 mg/kg/injection, schedule: Q01DX010 (ip), vehicle: saline): 100 % of control; T/C (dose: 25.0 mg/kg/injection, schedule: Q01DX010 (ip), vehicle: saline): 104 % of control; T/C (dose: 50.0 mg/kg/injection, schedule: Q01DX010 (ip), vehicle: saline): 108 % of control

With COc1c(C#N)c2c(c(OC)c1OC)-c1ccc(OC)c(=O)cc1[C@@H](NC(C)=O)CC2 as the compound, how does the T/C [7] read?
The T/C was 119 % of control.

With CCCCCCC/C=C\c1cnc2nc(N)nc(N)c2n1 as the compound, how does the T/C [8] read?
The T/C was 92 % of control.

What about the T/C [9] of the same compound?
Its T/C is 89 % of control.

And the T/C (dose: 400.0 mg/kg/injection, schedule: Q04DX003 (ip), vehicle: saline with Tween-80)?
Its T/C is 92 % of control.

How did the T/C [4] turn out when O=C(c1ccncc1)c1c(Cc2ccccc2)ccc2ccccc12 was run?
The T/C was 92 % of control.

And the T/C [5]?
Its T/C is 96 % of control.

What about the T/C [10] of the same compound?
Its T/C is 90 % of control.

And the T/C (dose: 400.0 mg/kg/injection, schedule: Q01DX009 (ip), vehicle: saline with Tween-80)?
Its T/C is 92 % of control.

Which T/C [4] does the source give for CCN(CC)CC(COC)Oc1cc(C)ccc1C(C)C (configuration not stated) here?
Its T/C is 100 % of control.

And the T/C [5]?
The T/C was 91 % of control.

CCCCCCCCC(O)CCCCC (configuration not stated) was tested. Which T/C [11] did it give?
Its T/C is 108 % of control.

And the T/C [12]?
The T/C was 87 % of control.

What about the T/C [13] of the same compound?
Its T/C is 95 % of control.

What does the source list for O=c1cc(-c2cccs2)ss1?
T/C (dose: 25.0 mg/kg/injection, schedule: Q01DX009 (ip), vehicle: saline with Tween-80): 106 % of control; T/C [4]: 97 % of control; T/C [5]: 86 % of control and 106 % of control; T/C [8]: 106 % of control; T/C [10]: 116 % of control; T/C [9]: 92 % of control

Which results are given for CCC(=O)Nc1cc(Cl)ccc1C?
T/C [3]: 118 % of control; T/C (dose: 100.0 mg/kg/injection, schedule: Q01DX009 (ip), vehicle: Klucel (hydroxypropylcellulose) (HPC)): 109 % of control; T/C [11]: 109 % of control; T/C (dose: 200.0 mg/kg/injection, schedule: Q01DX009 (ip), vehicle: Klucel (hydroxypropylcellulose) (HPC)): 90 % of control; T/C [12]: 104 % of control; T/C (dose: 400.0 mg/kg/injection, schedule: Q01DX009 (ip), vehicle: Klucel (hydroxypropylcellulose) (HPC)): 90 % of control; T/C [13]: 100 % of control

For O=C(c1ccccc1)C1C(c2ccccc2)C2(CCCCC2=O)C(c2ccccc2)CC1(O)c1ccccc1 (configuration not stated), which T/C [14] is on record?
Its T/C is 88 % of control.

For CCCCCCCCCCCC(c1ccccc1)[N+](C)(C)Cc1ccccc1 (configuration not stated), which T/C (dose: 0.25 mg/kg/injection, schedule: Q01DX010 (ip), vehicle: saline) is on record?
The T/C was 100 % of control.

And the T/C (dose: 0.5 mg/kg/injection, schedule: Q01DX010 (ip), vehicle: saline)?
Its T/C is 108 % of control.

What about the T/C (dose: 1.0 mg/kg/injection, schedule: Q01DX010 (ip), vehicle: saline) of the same compound?
The T/C was 116 % of control.

What about the T/C (dose: 2.0 mg/kg/injection, schedule: Q01DX010 (ip), vehicle: saline) of the same compound?
The T/C was 108 % of control.

What does the source list for BrCCC1(CCBr)CCCCC1?
T/C [1]: 113 % of control; T/C (dose: 25.0 mg/kg/injection, schedule: Q01DX009 (ip), vehicle: water): 97 % of control; T/C (dose: 50.0 mg/kg/injection, schedule: Q01DX009 (ip), vehicle: water): 96 % of control; T/C [2]: 106 % of control; T/C (dose: 100.0 mg/kg/injection, schedule: Q01DX009 (ip), vehicle: water): 99 % of control; T/C (dose: 100.0 mg/kg/injection, schedule: Q04DX003 (ip), vehicle: water): 111 % of control; T/C (dose: 200.0 mg/kg/injection, schedule: Q01DX009 (ip), vehicle: water): 108 % of control; T/C (dose: 200.0 mg/kg/injection, schedule: Q04DX003 (ip), vehicle: water): 106 % of control; T/C (dose: 300.0 mg/kg/injection, schedule: Q04DX003 (ip), vehicle: water): 107 % of control; T/C (dose: 400.0 mg/kg/injection, schedule: Q01DX009 (ip), vehicle: water): 118 % of control; T/C (dose: 400.0 mg/kg/injection, schedule: Q04DX003 (ip), vehicle: water): 122 % of control; T/C (dose: 500.0 mg/kg/injection, schedule: Q04DX003 (ip), vehicle: water): 109 % of control

For Clc1cc(CBr)c(Cl)c(Cl)c1CBr, which T/C [7] is on record?
The T/C was 109 % of control.

And the T/C (dose: 6.25 mg/kg/injection, schedule: Q01DX009 (ip), vehicle: saline)?
Its T/C is 100 % of control.

What about the T/C (dose: 6.25 mg/kg/injection, schedule: Q04DX003 (ip), vehicle: saline sonified) of the same compound?
Its T/C is 95 % of control.

And the T/C [6]?
The T/C was 109 % of control.

What about the T/C (dose: 12.5 mg/kg/injection, schedule: Q01DX009 (ip), vehicle: saline) of the same compound?
Its T/C is 103 % of control.

And the T/C (dose: 12.5 mg/kg/injection, schedule: Q04DX003 (ip), vehicle: saline sonified)?
Its T/C is 100 % of control.

And the T/C (dose: 25.0 mg/kg/injection, schedule: Q01DX009 (ip), vehicle: saline)?
Its T/C is 110 % of control.

And the T/C (dose: 25.0 mg/kg/injection, schedule: Q04DX003 (ip), vehicle: saline sonified)?
Its T/C is 100 % of control.

Which T/C (dose: 50.0 mg/kg/injection, schedule: Q01DX009 (ip), vehicle: saline) does the source give for O=C(N[C@@H](c1ccccc1)[C@H](N=Cc1ccccc1)c1ccccc1)c1ccccc1 here?
Its T/C is 102 % of control.

And the T/C (dose: 50.0 mg/kg/injection, schedule: Q04DX003 (ip), vehicle: saline)?
Its T/C is 91 % of control.

What about the T/C (dose: 100.0 mg/kg/injection, schedule: Q01DX009 (ip), vehicle: saline) of the same compound?
The T/C was 100 % of control.

And the T/C [15]?
Its T/C is 92 % of control.

What about the T/C (dose: 200.0 mg/kg/injection, schedule: Q01DX009 (ip), vehicle: saline) of the same compound?
Its T/C is 91 % of control.

And the T/C [16]?
Its T/C is 91 % of control.

And the T/C (dose: 400.0 mg/kg/injection, schedule: Q01DX009 (ip), vehicle: saline)?
Its T/C is 94 % of control.

And the T/C (dose: 400.0 mg/kg/injection, schedule: Q04DX003 (ip), vehicle: saline)?
Its T/C is 90 % of control.

With O=c1ccccc(Br)c1O as the compound, how does the T/C [14] read?
The T/C was 110 % of control.

And the T/C (dose: 100.0 mg/kg/injection, schedule: Q01DX001 (ip), vehicle: Klucel (hydroxypropylcellulose) (HPC))?
The T/C was 121 % of control.

How did the T/C [15] turn out when ClCc1ccncc1 was run?
The T/C was 100 % of control.

And the T/C [16]?
The T/C was 100 % of control.

Cc1ccc(OC/C=C/CS(=O)(=O)c2ccc(Cl)cc2)cc1 was tested. Which T/C [11] did it give?
Its T/C is 95 % of control.

What about the T/C [12] of the same compound?
Its T/C is 95 % of control.

What about the T/C [13] of the same compound?
Its T/C is 104 % of control.

With COCn1cc(C(N)=O)c(=O)c2c(N)nc(SC)nc21 as the compound, how does the T/C (dose: 100.0 mg/kg/injection, schedule: Q04DX002 (ip), vehicle: saline with Tween-80) read?
Its T/C is 90 % of control.

And the T/C (dose: 400.0 mg/kg/injection, schedule: Q04DX002 (ip), vehicle: saline with Tween-80)?
The T/C was 96 % of control.
